Results taken from patent US20190076496A1, “POLYSACCHARIDE DIGESTION INHIBITOR” (Q' SAI CO., LTD., priority 2016, published 2019).

Key:
Type in all cases: in vivo
[1] = system: GK rat (Goto-Kakizaki rat); assay: Measurement of blood glucose level after loading starch; conditions: 60 minutes after starch 2 g/kg; acarbose 10 mg/kg body weight oral
Procedure: Each GK rat (Goto-Kakizaki rat) was allowed to orally ingest an Astilbe thunbergii extract and immediately thereafter to orally ingest starch, and the blood glucose level up to 2 hours later was measured over time (Approach 4). In the case of a GK rat, since hyperglycemia is caused due to its low insulin secretion amount after meal, it is possible to sensitively analyze the influence of drugs on the digestion and absorption of saccharides.
[Approach 4: Measurement of Blood Glucose Level after Loading Starch]
GK rats (male, 5 weeks old) were obtained from Japan SLC, Inc. and preliminarily bred for 1 week before use. Seven rats per experimental group were used.
(1) Japanese Pharmacopeia water for injection (a negative control))
(2) A solution having acarbose dissolved in the water for injection (a positive control); administered at 10 mg/kg body weight
(3) A suspension having the hydrous ethanol extract of Astilbe thunbergii suspended in the water for injection; administered at 100 mg/kg body weight or 300 mg/kg body weight […]
Each GK rat was fasted for 18 hours and its fasting blood glucose level was then measured. […] Blood was collected from the tail vein 30, 60, 90 and 120 minutes after the administration of starch, and the blood glucose level was measured using a simple type blood glucose meter (NIPRO Freestyle Freedom Lite, FS Blood Glucose Sensor Light, manufactured by Nipro Corporation).

[2] = system: GK rat (Goto-Kakizaki rat); assay: Measurement of blood glucose level after loading sucrose; conditions: 90 minutes after sucrose 2 g/kg; acarbose 10 mg/kg oral
Procedure: Each GK rat was fasted for 18 hours and its fasting blood glucose level was then measured. Thereafter, the test substance was orally administered to the rat using a disposable gastric probe and a disposable syringe. Two minutes after the administration of the test substance, starch (dissolved in purified water, at 2 g/kg body weight) was administered in a single oral dose. Blood was collected from the tail vein 30, 60, 90 and 120 minutes after the administration of starch, and the blood glucose level was measured using a simple type blood glucose meter (NIPRO Freestyle Freedom Lite, FS Blood Glucose Sensor Light, manufactured by Nipro Corporation).
As described above, since the digestion process from starch to dextrose depends on the enzyme activities of both α-amylase and α-glucosidase, it cannot be ruled out from the results of Test Example 3 that the Astilbe thunbergii extract might inhibit only one of the enzyme activities in the body of an animal (the activity of the other enzyme activity cannot be inhibited). Accordingly, the digestion inhibitory effect of Astilbe thunbergii extract was analyzed using sucrose for which the digestion process depends only on α-glucosidase. Specifically, in the Approach 4, the blood glucose was measured using “sucrose (dissolved in purified water, at 2 g/kg body weight)” instead of “starch (dissolved in purified water, at 2 g/kg body weight)”. […]

[3] = system: GK rat (Goto-Kakizaki rat); assay: Measurement of blood glucose level after loading glucose (dextrose)
Procedure: Specifically, each GK rat was allowed to orally ingest the Astilbe thunbergii extract and dextrose and its influence on a change in the blood glucose level was analyzed (Approach 5). In this analysis, an experiment group orally ingesting anagliptin, a DPP-IV inhibitor, was used as a positive control.
[Approach 5: Measurement of Blood Glucose Level after Loading Glucose]
(1) Japanese Pharmacopeia water for injection (a negative control)
(2) A solution having anagliptin dissolved in the water for injection (a positive control); administered at 10 mg/kg body weight
(3) A suspension having, the hydrous ethanol extract of Astilbe thunbergii prepared in the Test Example 2, suspended in the water for injection; administered at 100 mg/kg body weight or 300 mg/kg body weight
Administration and Measurement of Blood Glucose Level
Each GK rat (8-week-old male rat, 7 rats/experimental group) was fasted for 18 hours and its fasting blood glucose level was then measured. Thereafter, the test substance was orally administered to the rat using a disposable gastric probe and a disposable syringe. […] Blood was collected from the tail vein 30, 60, 90 and 120 minutes after the administration of dextrose, and the blood glucose level was measured using a simple type blood glucose meter (NIPRO Freestyle Freedom Lite, FS Blood Glucose Sensor Light, manufactured by Nipro Corporation).

C[C@H]1O[C@H](O[C@H]2[C@H](O)[C@@H](O)[C@@H](O[C@H]3[C@H](O)[C@@H](O)C(O)O[C@@H]3CO)O[C@@H]2CO)[C@H](O)[C@@H](O)[C@@H]1N[C@H]1C=C(CO)[C@@H](O)[C@H](O)[C@H]1O (stereo partly shown) [acarbose]
blood glucose level [1]: 117 ± 43 mg/dL
blood glucose level [2]: 161 ± 45 mg/dL

Cc1cc2ncc(C(=O)NCC(C)(C)NCC(=O)N3CCC[C@H]3C#N)cn2n1 [anagliptin]
glucose AUC compared with negative control ([3]; 0 to 120 minutes after dextrose, anagliptin 10 mg/kg, extract 100 or 300 mg/kg): significantly decreases the glucose AUC
time course of blood glucose level compared with negative control ([3]; after dextrose 2 g/kg, anagliptin 10 mg/kg oral, decrease since 60 minutes later): began to decrease earlier than that in the negative control
